Source: US11933780B2, “System and method for assessing an effect on cellular units in an organism” (Functional Fluidics Inc., priority 2022, dated 2024)

System: erythrocytes
Assay: percentage of sickling of erythrocytes over time during deoxygenation by the PCA/PCD system
Format: cell-based
Source text: FIG. 5 is a graph illustrating a percentage of sickled erythrocytes over time for one sample that is exposed to a drug and one that is not.
Referring again to FIG. 3, the method may continue with the step 60 of deoxygenating the supporting medium in the aliquot of sample A and, in certain embodiments, the supporting medium in the aliquot of sample B to induce at least one of a predetermined amount of hypoxia and a predetermined rate of oxygen consumption in each of the supporting mediums. Deoxygenation of the supporting mediums in the aliquots of samples A and B may occur at the same or different times. Deoxygenation may be performed through enzymatic catalysis using enzymatic oxygen scavengers/scrubbers such as glucose oxidase or pyranose oxidase. In a preferred embodiment, deoxygenation is performed through enzymatic catalysis using a reaction substrate comprising protocatechuic acid (PCA) and a reaction enzyme comprising […] (PCD). PCD catalyzes the conversion of PCA and oxygen in the supporting medium in a 1:1 stoichiometry into β-carboxy-cis, cis-muconic acid (CMA). The use of PCA/PCD has a number of advantages relative to other enzymatic catalysis methods and other methods of deoxygenation. […] The use of PCA/PCD can achieve greater levels of hypoxia in the samples relative to some other methods. The use of PCA/PCD can also achieve specific levels of hypoxia as opposed to proceeding to complete hypoxia as in other methods thereby allowing simulation of more specific conditions (e.g., for a particular organ or particular level of hypoxia). Most importantly, the use of PCA/PCD allows accurate control of the rate of oxygen consumption in both the supporting medium and, as a result, the rate of deoxygenation of Hb in embodiments where the cellular unit comprises erythrocytes or extracellular Hb. Conventional methods of deoxygenation assume equilibrium or quasi-equilibrium conditions in which, for example, the rate of Hb deoxygenation occurs […] than the rate of oxygen consumption in the supporting medium. […]

[1] = FIG. 5, curve 76 vs curve 78, PCA/PCD deoxygenation at the same rate of oxygen consumption

CC(C)n1nccc1-c1ncccc1COc1cccc(O)c1C=O [voxelotor]
percentage of sickling of erythrocytes over time (FIG. 5, curve 76 (voxelotor) vs curve 78, same erythrocyte-containing sample deoxygenated by PCA/PCD at the same rate of oxygen consumption): reduction in sickling
delay in sickling [1]: longer delay in sickling
erythrocyte sickling rate [1]: slower erythrocyte sickling rate
